Data taken from US11926613B2, “Kinase inhibitors for the treatment of central and peripheral nervous system disorders” (UNIVERSITY OF MIAMI, priority 2017, dated 2024).
pEC50: −log10 of the molar value. Like-named read-outs stand apart in the source and are kept apart here.

Key:
[1] = system: neurons from hippocampi of E18 rat embryos; assay: Neurite growth length (% NTL) in cultured E18 rat hippocampal neurons, 9-point dose response, 48 hours; format: cell-based; details: for activity at 0.078 µM / activity at 0.156 µM / activity at 0.312 µM / activity at 0.625 µM / activity at 1.25 µM / activity at 2.5 µM / activity at 5 µM / activity at 10 µM / activity at 20 µM: Rattus norvegicus, Neuron, 48 h
Summary of the method: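 Dissociated E18 rat hippocampal neurons at 1500 cells/well on PDL were exposed 48 h to 9 concentrations from 20 μM down to 0.078125 μM. After PFA fixation and βIII-tubulin/Hoechst staining, ArrayScan imaging traced neurites in at least 200–300 neurons per condition to give % NTL.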

Primary Neurons = assay: HCS neurite outgrowth assay (High Content Screening with Primary Neurons); format: cell-based

Compound	activity at 0.078 µM ([1]; 78 nM)	activity at 0.156 µM ([1]; 156 nM)	activity at 0.312 µM ([1]; 312 nM)	activity at 0.625 µM ([1]; 625 nM)	activity at 1.25 µM ([1]; 1.25 μM)	activity at 2.5 µM ([1]; 2.5 μM)	activity at 5 µM ([1]; 5 μM)	activity at 10 µM ([1]; 10 μM)	activity at 20 µM ([1]; 20 μM)	pEC50 (Primary Neurons; Primary neuron)	neurite growth length (% NTL) ([1]; 78 nM)	neurite growth length (% NTL) ([1]; 156 nM)	neurite growth length (% NTL) ([1]; 312 nM)	neurite growth length (% NTL) ([1]; 625 nM)	neurite growth length (% NTL) ([1]; 1.25 μM)	neurite growth length (% NTL) ([1]; 2.5 μM)	neurite growth length (% NTL) ([1]; 5 μM)	neurite growth length (% NTL) ([1]; 10 μM)	neurite growth length (% NTL) ([1]; 20 μM)	pEC50 (Primary Neurons)
COc1cc(C(=O)c2ccccc2O)ccc1C(=O)N[C@@H]1CNC[C@H]1NC(=O)c1ccnc(N)n1 [Example A68, 2-amino-N-[(3R,4R)-4-[4-(2-hydroxybenzoyl)-2-methoxybenzamido]pyrrolidin-3-yl]pyrimidine-4-carboxamide]	101%	95.7%	94.8%	91.2%	102%	101%	96.8%	102%	94.3%	5.91	–	–	–	–	–	–	–	–	–	–
COc1cccc(C(=O)c2ccc(C(=O)N[C@@H]3CNC[C@H]3NC(=O)c3ccncc3)cc2)c1O [Example A73, N-[(3R,4R)-4-[4-(2-hydroxy-3-methoxybenzoyl)benzamido]pyrrolidin-3-yl]pyridine-4-carboxamide]	96.7%	110%	102%	105%	125%	117%	121%	136%	159%	< 4.70	–	–	–	–	–	–	–	–	–	–
COc1ccc(C(=O)c2ccc(C(=O)N[C@@H]3CNC[C@H]3NC(=O)c3ccnc(N)n3)cc2)c(O)c1 [Example A82, 2-amino-N-[(3R,4R)-4-[4-(2-hydroxy-4-methoxybenzoyl)benzamido]pyrrolidin-3-yl]pyrimidine-4-carboxamide]	107%	115%	117%	124%	122%	120%	120%	131%	117%	6.81	–	–	–	–	–	–	–	–	–	–
COc1ccc(OC)c(C(=O)c2ccc(C(=O)N[C@@H]3CN(C)C[C@H]3NC(=O)c3ccncc3)cc2)c1F [Example A33, N-[(3R,4R)-4-[4-(2-fluoro-3,6-dimethoxybenzoyl)benzamido]-1-methylpyrrolidin-3-yl]pyridine-4-carboxamide]	108%	106%	99.3%	107%	115%	129%	142%	159%	207%	< 4.70	–	–	–	–	–	–	–	–	–	–
COc1ccc(O)c(C(=O)c2ccc(C(=O)N[C@@H]3CCCCC[C@H]3NC(=O)c3ccncc3)cc2)c1F [Example A25, N-[(1R,2R)-2-[4-(2-fluoro-6-hydroxy-3-methoxybenzoyl)benzamido]cycloheptyl] pyridine-4-carboxamide]	98.9%	97.5%	110%	111%	120%	122%	134%	146%	163%	< 4.70	–	–	–	–	–	–	–	–	–	–
N[(3R,4R)-4-{4-[(2-fluoro-6-hydroxy-3- methoxyphenyl)methyl]benzamido}pyrrolidin- 3-yl]pyridine-4-carboxamide [Example A55]	–	–	–	–	–	–	–	–	–	–	85.02 % NTL	77.96 % NTL	80.06 % NTL	76.79 % NTL	81.96 % NTL	90.13 % NTL	93.58 % NTL	98.77 % NTL	96.04 % NTL	5.32
Cc1cc(C(=O)N[C@@H]2CNC[C@H]2NC(=O)c2ccncc2)ccc1C(=O)c1ccccc1O [Example A64, N-[(3R,4R)-4-[4-(2-hydroxybenzoyl)-3-methylbenzamido]pyrrolidin-3-yl]pyridine-4-carboxamide]	91.3%	99.8%	107%	105%	116%	129%	124%	121%	126%	6.23	–	–	–	–	–	–	–	–	–	–
COc1ccc(OC)c(C(=O)c2ccc(C(=O)Nc3ccncc3NC(=O)c3ccncc3)cc2)c1F [Example A1, N-{4-[4-(2-fluoro-3,6-dimethoxybenzoyl)benzamido]pyridin-3-yl}pyridine-4-carboxamide]	89.9%	89%	89.6%	91%	93.5%	85.8%	92.9%	87%	84.6%	5.03	–	–	–	–	–	–	–	–	–	–
Cc1cccc(C(=O)c2ccc(C(=O)N[C@@H]3CNC[C@H]3NC(=O)c3ccnc(N)n3)cc2)c1O [Example A74, 2-amino-N-[(3R,4R)-4-[4-(2-hydroxy-3-methylbenzoyl)benzamido]pyrrolidin-3-yl]pyrimidine-4-carboxamide]	101%	103%	103%	106%	105%	119%	121%	137%	–	5.35	–	–	–	–	–	–	–	–	–	–
O=C(N[C@@H]1CNC[C@H]1NC(=O)c1ccc(C(=O)c2ccc(Cl)cc2O)cc1)c1ccncc1 [Example A79, N-[(3R,4R)-4-[4-(4-chloro-2-hydroxybenzoyl)benzamido]pyrrolidin-3-yl]pyridine-4-carboxamide]	116%	109%	117%	118%	111%	116%	112%	107%	94.7%	< 4.70	–	–	–	–	–	–	–	–	–	–
COc1ccc(O)c(C(=O)c2ccc(C(=O)Nc3ccccc3NC(=O)c3ccncc3)cc2)c1F [Example A5, N-{2-[4-(2-fluoro-6-hydroxy-3-methoxybenzoyl)benzamido]phenyl}pyridine-4-carboxamide]	97.8%	102%	97.2%	102%	102%	113%	116%	124%	132%	4.98	–	–	–	–	–	–	–	–	–	–
COc1ccc(O)c(C(=O)c2ccc(C(=O)N[C@@H]3CNC[C@H]3NC(=O)c3ccc4cn[nH]c4c3)cc2)c1F [Example A57, N-[(3R,4R)-4-[4-(2-fluoro-6-hydroxy-3-methoxybenzoyl)benzamido]pyrrolidin-3-yl]-1H-indazole-6-carboxamide]	92.2%	97.8%	95.1%	93.9%	97.3%	93.5%	105%	107%	111%	< 4.70	–	–	–	–	–	–	–	–	–	–
O=C(N[C@@H]1c2ccccc2C[C@H]1NC(=O)c1ccncc1)c1ccc(C(=O)c2ccccc2)cc1 [Example A11, N-[(1R,2R)-1-(4-benzoylbenzamido)-2,3-dihydro-1H-inden-2-yl]pyridine-4-carboxamide]	104%	102%	87.4%	93.8%	91.7%	98.5%	94.6%	110%	110%	5.25	–	–	–	–	–	–	–	–	–	–
